Read-outs that look alike come from different tables or passages of the source.
Columns and labels:
[1] = Liver microsome metabolic stability (RLM); type: in vitro ADME, rat; design: microsomal CLint at 1 μmol/L: unit not given here; conditions: for half-life at 1 μmol/L: read-out: RLM T1/2
Procedure: (§1) We quantified S1–S15 and Zuranolone using a UPLC-MS/MS (Agilent 1290 Infinity II UHPLC (Agilent Technologies, Santa Clara, CA, USA) coupled with a QTRAP 5500 MS/MS (ESI source) (SCIEX, Redwood City, CA, USA for MS/MS). The method assessed the content level of S9 and Zuranolone in microsome metabolism and in rat brain tissue and plasma. An ACQUITY UPLC Peptide BEH C18 column (Waters; 50 × 2.1 mm, 1.7 μm; 60 °C; Waters Corporation, Milford, MA, USA) was used with a mobile phase of 0.02% propionic acid in water (A) and acetonitrile (B). The gradient elution of the mobile phase B is carried out as follows: it is 10% from 0 to 0.5 min, 90% from 0.8 to 2.5 min, and 10% from 2.8 to 3.5 min, with a flow rate of 0.40 mL/min. Quantitative analysis was performed on a QTRAP 5500 MS (SCIEX, Redwood City, CA, USA) in positive ionization mode with MRM (multiple reaction monitoring), using progesterone-d9 as the internal standard. MRM transitions and parameters were optimized for each analyte, with collision energies of 25 V (S1–S15), 23 V (Zuranolone), and 30 V (IS), and declustering potentials of 80 V (S1–S15), 90 V (Zuranolone), and 180 V (IS). Other conditions were as follows: curtain gas 10 psi, collision gas ‘medium’, ion spray voltage 5500 V, temperature 500 °C, and ionization source gases 1 and 2 at 50 psi.
To evaluate the metabolic stability of compounds S1–S15 and Zuranolone in RLM and HLM, we designed the following in vitro liver microsome metabolism assay protocol. In a 1.5 mL centrifuge tube, sequentially add 173 μL of PBS (0.1 M, pH 7.4), 5 μL of liver microsomes (20 mg/mL), and 2 μL of the test compound (100 μmol/L). After thorough mixing, pre-incubate at 37 °C for 10 min. Subsequently, add 20 μL of NADPH to initiate the metabolism, with a parallel control without NADPH, to validate the background signal. Samples were collected at 0, 5, 10, 20, 30, and 60 min post-reaction initiation. At each designated time point, we quenched the reaction with ice-cold acetonitrile (600 μL). After centrifuging the mixture, we analyzed the supernatant using UPLC-MS/MS. For data analysis, the compound concentration at 0 min was set as 100%, with concentrations at subsequent time points expressed as residual percentages relative to the initial value, and the in vitro half-life (T1/2) and intrinsic clearance (CLint) were calculated.

[2] = Plasma pharmacokinetic study in rats; type: in vivo, rat; conditions: for AUC(0-t) / C0 / half-life / Cmax / Tmax: rat plasma, n = 6; for bioavailability / Tmax: rat, plasma; for bioavailability: oral, 24.4 μmol/kg, i.g. 24.4 vs i.v. 6.1 μmol/kg, read-out: F (oral absolute bioavailability)
Procedure: as §1
Zuranolone was solubilized in 5% DMSO with solutol HS 15 in saline. S9 was solubilized in 10% DMSA with 30% SBECD (Zibo Qianhui Biological Technology Co., Ltd., Zibo, China) in saline. After fasting for 12 h, rats (n = 6 per group) were administered Zuranolone and S9 intragastrically (i.g.) at a dose of 24.4 μmol/kg, and intravenously (i.v.) at 6.1 μmol/kg. Blood samples (200 μL) were collected into 1.5 mL tubes containing heparin at 15 min, 30 min, 1, 2, 3, 4, 6, 8, 12, 24, 48, and 96 h after i.g. or at 5, 15, 30 min, and 1, 2, 3, 4, 6, 8, 12, 24, 48, 96 h after i.v. Plasma was separated by centrifugation for 5 min (8000 rpm, 4 °C) and stored at −80 °C immediately.
Experimental data were analyzed by GraphPad Prism software 9.0 and presented as means ± SD. Statistical differences were determined by one-way ANOVA followed by Dunnett’s post-hoc test, with p < 0.05 considered statistically significant. Main pharmacokinetic parameters were calculated using Phoenix WinNonlin 8.1 (non-compartmental model), and the absolute bioavailability of S9 was determined by the following formula: (AUC i.g. (0–t) × dose i.v.)/(AUC i.v. (0–t) × dose i.g.) × 100%.

[3] = biological target: T1, α1β2γ2 GABAA receptor (Homo sapiens, UniProt P14867+P47870); test: Whole-cell electrophysiology of GABA-evoked currents, LTK cells; type: cell-based; conditions: for Emax: current induced by 1 μmol/L GABA = 100%
T1 construct: expressed in transfected cells
T1 sequence (P14867 28-456): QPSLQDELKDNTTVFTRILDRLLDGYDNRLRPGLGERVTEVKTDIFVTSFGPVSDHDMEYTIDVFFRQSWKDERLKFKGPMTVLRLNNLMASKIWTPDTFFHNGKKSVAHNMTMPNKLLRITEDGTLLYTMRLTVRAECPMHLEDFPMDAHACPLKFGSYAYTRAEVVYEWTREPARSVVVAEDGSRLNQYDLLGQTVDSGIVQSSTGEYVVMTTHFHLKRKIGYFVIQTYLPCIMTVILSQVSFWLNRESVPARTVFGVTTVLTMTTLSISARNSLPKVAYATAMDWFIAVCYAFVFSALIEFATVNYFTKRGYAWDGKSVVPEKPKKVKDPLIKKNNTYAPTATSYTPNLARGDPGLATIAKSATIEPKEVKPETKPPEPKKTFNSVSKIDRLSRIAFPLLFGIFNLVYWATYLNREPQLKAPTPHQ
T1 sequence (P47870 25-512 limits assumed): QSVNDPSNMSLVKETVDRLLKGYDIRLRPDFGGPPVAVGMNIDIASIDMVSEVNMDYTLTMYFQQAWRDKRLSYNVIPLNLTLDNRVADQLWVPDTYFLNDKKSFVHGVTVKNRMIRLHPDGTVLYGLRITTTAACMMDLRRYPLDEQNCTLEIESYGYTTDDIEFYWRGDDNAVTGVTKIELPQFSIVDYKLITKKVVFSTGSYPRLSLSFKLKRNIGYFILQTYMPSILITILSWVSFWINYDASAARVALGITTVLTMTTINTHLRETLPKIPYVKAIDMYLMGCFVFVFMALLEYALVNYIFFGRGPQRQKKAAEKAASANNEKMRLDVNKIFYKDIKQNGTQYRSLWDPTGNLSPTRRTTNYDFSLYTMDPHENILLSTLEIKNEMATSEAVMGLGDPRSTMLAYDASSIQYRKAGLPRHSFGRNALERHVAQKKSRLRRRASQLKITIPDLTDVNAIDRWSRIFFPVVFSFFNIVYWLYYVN
T1 sequence (P18507 40-475 partner): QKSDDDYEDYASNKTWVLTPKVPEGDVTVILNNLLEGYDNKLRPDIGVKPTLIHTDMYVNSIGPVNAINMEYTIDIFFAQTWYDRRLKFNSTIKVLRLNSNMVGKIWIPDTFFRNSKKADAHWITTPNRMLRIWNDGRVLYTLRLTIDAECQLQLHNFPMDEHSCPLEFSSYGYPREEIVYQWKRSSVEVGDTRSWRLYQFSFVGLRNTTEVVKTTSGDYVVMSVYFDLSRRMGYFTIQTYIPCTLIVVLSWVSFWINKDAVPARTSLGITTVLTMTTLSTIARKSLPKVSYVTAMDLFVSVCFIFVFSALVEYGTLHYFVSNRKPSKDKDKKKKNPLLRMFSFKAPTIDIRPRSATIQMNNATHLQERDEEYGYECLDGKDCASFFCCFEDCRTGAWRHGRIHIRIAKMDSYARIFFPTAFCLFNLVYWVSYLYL
Procedure: The α1β2γ2 and α4β3δ GABAA receptor subtypes, representing synaptic and extrasynaptic subunit compositions in neurons, are widely utilized for screening new NAS drugs. In this study, a preliminary SAR study was conducted on a series of Zuranolone analogs using the LogP values predicted by ADMETlab3.0 software, recombinant human GABAA receptor cell lines, and in vitro liver microsome stability assays. The results are summarized in Table 1, Table 2, and Table 3, respectively.
The effects of Zuranolone and synthetic analogs on GABA-evoked currents were assessed in LTK cells stably expressing α1β2γ2 GABAA receptor subunits (n = 3) or CHO cells transiently expressing α4β3δ receptors (n = 3). Whole-cell mode recordings were conducted using the HEKA EPC-10 amplifier and analyzed with PatchMaster software (version 2x90, HEKA Elektronik, Lambrecht, Germany). High-throughput whole-cell recordings were performed using the Q-Patch method from Sophion. Test substances were dissolved in DMSO (dimethyl sulfoxide) to prepare 10 mmol/L stock solutions, then diluted with perfusion bath solution to concentrations ranging from 0.01 to 10 μmol/L. In this experiment, the effects of Zuranolone and its synthetic analogs on GABA-induced currents were examined in the presence of a submaximal agonist concentration at 1 μmol/L GABA (EC20). Cells were pre-incubated with increasing doses of test substances for 30 s, followed by 2 s of GABA stimulation, and currents were recorded. The maximum efficacy (Emax) of the GABAA receptor is expressed with the current induced by 1 μmol/L GABA taken as 100%, and the percentage after treatment with the test compound is calculated. The EC50 values are determined by fitting the three concentration–response curves recorded from three cells.

[4] = iv, 6.1 umol/kg, i.v. 6.1 μmol/kg
[5] = po, 24.4 umol/kg, i.g. 24.4 μmol/kg

C[C@@]1(O)CC[C@H]2[C@H](CC[C@@H]3[C@@H]2CC[C@]2(C)[C@@H](C(=O)Cn4cc(C#N)cn4)CC[C@@H]32)C1 [Zuranolone]
half-life at 1 μmol/L ([1]; pH 7.4, rat liver microsomes): 0.8 h | AUC(0-t) [2, 4]: 5.18 ± 1.73 µM·h | C0 [2, 4]: 3.43 ± 1.74 µM | half-life [2, 4]: 2.5 ± 1.3 h | AUC(0-t) [2, 5]: 12 µM·h | Cmax [2, 5]: 2.28 ± 0.554 µM | half-life [2, 5]: 3.8 ± 1.7 h | bioavailability ([2]; rats): 57.7% | Tmax [2, 5]: ~1.2 h | EC50 [3]: 123 ± 20 nM | Emax ([3]; LTK cells, n = 3): 894 ± 40%

C[C@@]1(O)CC[C@H]2[C@H](CC[C@@H]3[C@@H]2CC[C@]2(C)[C@@H](C(=O)Cn4cnn(-c5ccnc(OCC(F)(F)F)c5)c4=O)CC[C@@H]32)C1 [S9]
fold longer T1/2 than Zuranolone ([1]; RLM): 4 fold | fold lower CLint than Zuranolone ([1]; RLM): 6.5 fold | half-life at 1 μmol/L ([1]; pH 7.4, rat liver microsomes): 3.1 h | microsomal CLint at 1 μmol/L ([1]; pH 7.4, rat liver microsomes, read-out: RLM intrinsic clearance (CLint)): 8000 | increase in AUC compared to S28 ([2]; S28 previously reported ref 25): over 2 fold | increase in T1/2 compared to S28 ([2]; S28 previously reported ref 25): over 2 fold | AUC(0-t) [2, 4]: 24.2 µM·h | C0 [2, 4]: 2.86 ± 0.223 µM | half-life [2, 4]: 16.4 ± 0.56 h | AUC(0-t) [2, 5]: 80.4 µM·h | Cmax [2, 5]: 3.6 ± 0.541 µM | half-life [2, 5]: 19.8 ± 1.5 h | bioavailability ([2]; rats): 82.9% | Tmax [2, 5]: ~3.7 h | AUC0–t as fold of Zuranolone ([2]; rats, i.g. 24.4 μmol/kg): approximately 6.7 fold | T1/2 as fold of Zuranolone ([2]; rats, i.g. 24.4 μmol/kg): approximately 5.2 fold | AUC0–t as fold of Zuranolone ([2]; rats, i.v. 6.1 μmol/kg): approximately 4.7 fold | T1/2 as fold of Zuranolone ([2]; rats, i.v. 6.1 μmol/kg): approximately 6.6 fold | AUC higher than Zuranolone ([2]; rats, route not given): 6 fold | plasma T1/2 longer than Zuranolone ([2]; rats, route not given): 5 fold | EC50 ([3]; LTK cells, 1 μmol/L GABA (EC20), n = 3, read-out: α1β2γ2 EC50): 50 ± 10 nM | Emax ([3]; LTK cells, n = 3): 675 ± 163% | enhanced GABAA receptor potency compared to S28 ([3]; S28 previously reported ref 25): over 1 fold | efficacy as % of that of Zuranolone ([3]; synaptic GABAA receptors): 76% | potency as % of that of Zuranolone ([3]; synaptic GABAA receptors): 250% | efficacy as % of that of Zuranolone ([3]; synaptic and extrasynaptic GABAA receptors, not separated): approximately 75%

— PMC12073189, “Synthesis and Evaluation of a Novel Zuranolone Analog with High GABAA Receptor PAM Activity and Excellent Pharmacokinetic Profiles” (Molecules, 2025)
